Patent US20190054093A1, “TREATMENT OF SARCOPENIA WITH ECDYSTEROIDS” (priority 2014, published 2019)
Where two headings read alike, the source gives them in different places.

Assays:
[1] = cited from earlier work; for effect on the sexual apparatus (ventral prostate weight, seminal vesicle weight): sexually immature intact rats
[2] = tested on: C2C12 myotubes; test: Protein synthesis by radio-labeled leucine incorporation in C2C12 myotubes (Example 3); format: cell-based, mouse
[3] = cited from earlier work
[4] = tested on: Caspase-3 expression in C2C12 myotubes; test: Caspase 3 expression in C2C12 myotubes (quantitative RT-PCR, Example 4); format: cell-based, mouse; conditions: 24 hours; extracts and turkesterone 0.002, 0.02 and 2 ppm, 20HE 0.001, 0.01 and 1 ppm
Description: Experiments similar to those in example 1 have been carried out with two other plant-derived, ecdysteroid-rich extracts. […] Cells between passages 3 and 10 were seeded at a density of 10,000 cells per cm^2. Cells were grown for 48 h until they reached 80-90% confluence. […] Cells were maintained at 37° C. in a humidified 5% CO2 incubator and medium was changed every other day.
For RNA and protein extraction C2C12 myotubes were incubated with 0.002, 0.02 and 2 ppm of Rhaponticum carthamoides extract (RCE) and Cyanotis arachnoidea extract (CAE) or 0.001, 0.01 and 1 ppm of 20-hydroxyecdysone or 0.002, 0.02 and 2 ppm of Turkesterone for 24 hours. These two latter served as positive controls. RNA and protein were extracted using All Prep RNA/Protein Kit (Qiagen, Spain). RNA was stored at −80° C. and protein at −20° C. until further use. Total RNA was quantified using a fluorometric method with Quant-iT kit (Invitrogen, Spain). The cDNA was reverse-transcribed from the RNA extract using RT^2First Stand cDNA kit (Qiagen, Spain). Quantitative real-time RT-PCR for Caspase-3 and Myostatin were carried out using a MX3005P Q-PCR System (Agilent Technologies) and SYBR-Green/ROX detection. The housekeeping gene used was Actb and Mouse XpressRef Universal total RNA (Qiagen, Spain) as a positive control. […] The fold change in gene expression was calculated with ΔΔCt Method.

[5] = tested on: polyribosomes from the livers of mice; conditions: cited from earlier work
[6] = tested on: protein synthesis in mouse liver; conditions: actinomycin D 2 mg/kg 30 minutes before the test substance; cited from earlier work
[7] = tested on: MCF7-AR1 cells; test: A-Screen bioassay: androgen-dependent inhibition of E2-induced proliferation; format: cell-based; conditions: Homo sapiens; in the presence of E2; read-out: IC50 of inhibition of cell proliferation
Description: In this example ATE and RCE were assessed for androgenic activity using the A-screeen assay. MCF7-AR1 is a human cancer-derived cell line which has been genetically engineered to overexpress the androgenic receptor (AR). […] This assay measures androgen-dependent inhibition of proliferation of the androgen receptor (AR)-positive human mammary carcinoma cell line, MCF7-AR1. This cell line has been stably transfected with a full human AR and expresses approximately five times more AR than wild-type cells. MCF7-AR1 cells retain the capacity to proliferate in response to estrogen treatment (E2). Androgens inhibit estrogen-induced proliferation and cells arrest in G0/G1 phase in a dose-dependent manner.
The A-Screen bioassay compares the cell number of similar inocula of MCF-7-AR1 cells growing in media in the absence of any estrogen and androgens (C−, negative control), in the presence of E2 (C+, estrogen control) and in the presence of E2 in combination with different concentrations of the suspected androgen (FIG. 11). Androgenic activity of a test compound results in the inhibition of cell proliferation compared to the E2 control.

[8] = tested on: myostatin (Mstn) gene expression in C2C12 muscle cells; test: Myostatin gene expression in C2C12 myotubes (RT2 Profiler PCR Array, Example 1); format: cell-based, mouse; conditions: 20 ppm ATE or 1 μM methandrostenolone, 6 h
Description: (§1) The effect of Ajuga turkestanica extract (ATE) standardized to Turkesterone content was studied in muscle cells. […] Cells between passages 3 and 10 were seeded at a density of 10,000 cells per cm^2. Cells were grown for 48 h until they reached 80-90% confluence. […] Cells were maintained at 37° C. in a humidified 5% CO2 incubator and medium was changed every other day.
(§2) For RNA extraction, C2C12 cells were plated and differentiated to myotubes into 12-wells plates. […] RNA was then extracted using an All Prep RNA/Protein Kit (Qiagen, Spain). Total RNA was quantified using a fluorometric method with Quant-iT kit (Invitrogen, Spain). RNA was stored at −80° C. until further use. cDNA was reverse-transcribed from the RNA extract using RT^2 First Stand cDNA kit and we used a RT^2 Profiler PCR Array to analyze a panel of 84 genes involved in skeletal muscle development and disease (Qiagen, Spain). Quantitative real-time RT-PCR was carried out using a SYBR-Green/ROX detection in a MX3005P Q-PCR System. Samples were heated at 95° C. for 10 min, followed by a second stage composed of 15 sec at 95° C., 1 min at 60° C. which was repeated 40 times and third stage for dissociation curve composed of 1 min at 95° C., 30 sec at 55° C. and 30 sec at 95° C. The PCR-array data was analyzed by calculating relative gene expression and statistical significance through the use of known methods.

[9] = tested on: Caspase-3 (Casp3) gene expression in C2C12 muscle cells; test: Caspase-3 gene expression in C2C12 myotubes (RT2 Profiler PCR Array, Example 1); format: cell-based, mouse; conditions: 20 ppm ATE or 1 μM methandrostenolone, 6 h
Description: as §1, §2

[10] = castrated sexually immature rats
[11] = sexually mature male rats, 0.5 mg per 100 g intragastrically daily for 10 days
[12] = sexually immature intact rats, 0.5 mg per 100 g intragastrically daily for 10 days

Compound | weight of the ventral prostate and seminal vesicles [1, 10] | effect on the sexual apparatus (ventral prostate weight, seminal vesicle weight) [1] | weight of the ventral prostate and seminal vesicles [1, 11] | ratio of test to control (weight gain) [3, 10] | weight gain [3, 12] | ratio of test to control (weight gain) ([3]; sexually immature intact rats) | total protein content of organs ([3]; sexually immature intact rats) | effect of actinomycin D on the stimulation of liver protein synthesis [6] | IC50 [7] [nM] | other results
CC(C)(O)CC[C@@H](O)[C@](C)(O)[C@H]1CC[C@@]2(O)C3=CC(=O)[C@@H]4C[C@@H](O)[C@@H](O)C[C@]4(C)[C@H]3[C@H](O)C[C@]12C [turkesterone] | did not change | pronounced effect | did not change significantly | 1.8 | 38 mg per 1 g initial weight per day | 2.6 | statistically significant increase | no noticeable effect | – | protein synthesis, % of control ([2]; 40 nM): 110 % of control; protein synthesis, % of control (peak effect) ([2]; 0.1 μM): 120 % of control; body weight gain [3, 11]: 9.7 mg per 1 g weight per day; body weight gain relative to control [3, 11]: 2 times; regulation of Caspase 3 expression [4]: significant effect in down regulation; ratio of translating to nontranslating ribosomes ([5]; mouse liver, control group 3.98): 3.80
turkesterone tetraacetate | did not change | pronounced effect | did not change significantly | 1.9 | 37.2 mg per 1 g initial weight per day | 2.5 | statistically significant increase | – | – | heart weight and weight of the anterior tibial muscle [3, 11]: statistically significant increase
C[C@]1(O)CC[C@H]2[C@@H]3CCC4=CC(=O)CCC4=C3C=C[C@@]21C [Example R1881, methyltrienolone] | – | – | – | – | – | – | – | – | 0.02 | –
C[C@]12C=CC(=O)C=C1CC[C@@H]1[C@@H]2CC[C@@]2(C)[C@H]1CC[C@]2(C)O [methandrostenolone] | – | – | – | – | – | – | – | – | 0.35 | down-regulation of Myostatin [8]: < 2 fold; effect on protein synthesis ([2]; concentrations up to 10 μM): no significant effect; down-regulation of caspase-3 [9]: < 2 fold
C[C@]12C=CC(=O)C=C1CC[C@@H]1[C@@H]2CC[C@@]2(C)[C@H]1CC[C@]2(C)O [Nerobol] | – | – | – | – | – | – | – | almost totally removed the effect | – | increase of protein synthesis in the system of polyribosomes and cellular fluid from livers of treated animals ([5]; mice, Nerobol 1.0 mg/100 g, P<0.001): 14%
